Blank lines part the entries; values can stand above or below the compound they belong to. Square brackets hold non-standard residues; d marks the D form. Peptide text beside a SMILES is read from it. hArg = N=C(N)NCCCC[C@H](N)C(=O)O
Experiments:
Huh-7 = experiment: Inhibition of PCSK9 expression in human HuH7 cells after overnight incubation by ELISA; type: functional, cell-based
[1] = target: T1, Proprotein convertase subtilisin/kexin type 9 (Homo sapiens, UniProt Q8NBP7); experiment: Inhibition of PCSK9 (unknown origin) expressed in human HepG2 cells assessed as increase in LDL uptake at 100 uM; type: cell-based; parameters: scale not given: the % may be the effect or the level left
[2] = target: T1, Proprotein convertase subtilisin/kexin type 9; experiment: Inhibition of PCSK9 (unknown origin) expressed in human HepG2 cells assessed as increase in LDL uptake at 0.5 uM; type: cell-based; parameters: scale not given: the % may be the effect or the level left
[3] = target: T1, Proprotein convertase subtilisin/kexin type 9; experiment: Activation of PCSK9 (unknown origin) expressed in human HepG2 cells assessed as decrease in LDL uptake at 25 uM; type: cell-based; parameters: scale not given: the % may be the effect or the level left; details: hepg2, 25 µM
HeLa = experiment: Inhibition of PCSK9 expression in human HeLa cells after overnight incubation by ELISA; type: functional, cell-based
Mus musculus = experiment: Reduction in plasma total cholesterol level in C57BL/6 mouse at 4 mg/kg, sc administered once daily for 2 weeks with high fat diet by enzymatic method relative to untreated control; type: functional; parameters: scale not given: the % may be the effect or the level left
Rattus norvegicus [4] = experiment: Reduction of circulating PCSK9 level in rat plasma at 50 mg/kg, po administered daily for 14 days; type: functional; details: 336 h
Rattus norvegicus [5] = experiment: In vivo inhibition of PCSK9 in rat plasma assessed as decrease in LDL-c level at 50 mg/kg, po administered daily for 14 days; type: functional; details: 336 h
Rattus norvegicus [6] = experiment: In vivo inhibition of PCSK9 in rat plasma assessed as decrease in total plasma cholesterol level at 50 mg/kg, po administered daily for 14 days; type: functional; details: 336 h
[7] = target: T1, Proprotein convertase subtilisin/kexin type 9; experiment: Inhibition of PCSK9 in human HuH7 cells assessed as increase in cell surface LDLR expression level at 100 uM by FACS analysis relative to control; type: cell-based; parameters: scale not given: the % may be the effect or the level left
[8] = target: T1, Proprotein convertase subtilisin/kexin type 9; experiment: Inhibition of PCSK9 in human HuH7 cells assessed as increase in LDL uptake by FACS analysis; type: cell-based; parameters: scale not given: the % may be the effect or the level left
[9] = target: T1, Proprotein convertase subtilisin/kexin type 9; experiment: Inhibition of recombinant human C-terminal His8-tagged PCSK9 expressed in Chinese hamster ovary cells by TR-FRET assay; type: cell-based
[10] = target: T1, Proprotein convertase subtilisin/kexin type 9; experiment: Inhibition of PCSK9 (unknown origin) at 1.25 uM
[11] = target: T1, Proprotein convertase subtilisin/kexin type 9; experiment: Inhibition of PCSK9 in human HepG2 cells assessed as increase in uptake of fluorescent Dil-LDL at 1.5 uM relative to control; type: cell-based
[12] = target: T1, Proprotein convertase subtilisin/kexin type 9; experiment: Inhibition of PCSK9 in human HepG2 cells assessed as increase in uptake of fluorescent Dil-LDL at 0.37 uM relative to control; type: cell-based
[13] = target: T1, Proprotein convertase subtilisin/kexin type 9; experiment: Inhibition of binding of full-length recombinant human PCSK9 (M1 to Q692 residues) expressed in HEK293 cells to full-length LDLR (A1 to A699 residues) by SPR analysis
HepG2 = experiment: Inhibition of PCSK9 production in human HepG2 cells after 24 hrs by ELISA; type: functional, cell-based; details: HepG2, 24 h
[14] = target: T1, Proprotein convertase subtilisin/kexin type 9; experiment: Inhibition of PCSK9 in human HepG2 cells assessed as increase in LDL receptor levels at 200 uM after 18 to 24 hrs by Western blot analysis relative to control; type: cell-based
[15] = target: T1, Proprotein convertase subtilisin/kexin type 9; experiment: Binding affinity to recombinant human C-terminal His8-tagged PCSK9 expressed in Chinese hamster ovary cells by biolayer interferometry
[16] = target: T1, Proprotein convertase subtilisin/kexin type 9; experiment: Inhibition of recombinant PCSK9 (unknown origin) expressed in human HepG2 cells assessed as increase in LDL uptake at 0.31 uM after 16 hrs by fluorescence assay; type: cell-based; parameters: scale not given: the % may be the effect or the level left
[17] = target: T1, Proprotein convertase subtilisin/kexin type 9; experiment: Inhibition of recombinant PCSK9 (unknown origin) expressed in human HepG2 cells assessed as increase in LDL uptake at 10 uM after 16 hrs by fluorescence assay; type: cell-based; parameters: scale not given: the % may be the effect or the level left
[18] = target: T1, Proprotein convertase subtilisin/kexin type 9; experiment: Inhibition of recombinant PCSK9 (unknown origin) expressed in human HepG2 cells assessed as increase in LDLR expression levels relative to control; type: cell-based; parameters: scale not given: the % may be the effect or the level left
Hamster [19] = experiment: In vivo inhibition of PCSK9 in dietary hyperlipidemia hamster model assessed as reduction in blood LDL-c level at 0.01 mg/kg, po administered daily for 7 days; type: functional; details: Cricetinae, 168 h
Hamster [20] = experiment: In vivo inhibition of PCSK9 in dietary hyperlipidemia hamster model assessed as reduction in blood LDL-c level at 0.04 mg/kg, po administered daily for 7 days; type: functional; details: Cricetinae, 168 h
[21] = target: T1, Proprotein convertase subtilisin/kexin type 9; experiment: Inhibition of PCSK9 in human HepG2 cells assessed as increase in LDLR expression levels at 1.6 uM relative to control; type: cell-based
[22] = target: T1, Proprotein convertase subtilisin/kexin type 9; experiment: Inhibition of recombinant PCSK9 (unknown origin) expressed in human HepG2 cells assessed as increase in LDL uptake at 1.25 uM after 16 hrs by fluorescence assay; type: cell-based; parameters: scale not given: the % may be the effect or the level left
[23] = Ratio of drug level in liver to plasma in monkey at 30 mg/kg, po; type: ADME, organism-based, Macaca mulatta; details: rhesus monkey, liver and plasma

IC50 (Huh-7): 2200 nM
Compound: COc1ccc(CCC(=O)N(c2nccc3ccccc23)[C@@H]2CCCNC2)cc1

Activity [1]: 105%
Compound: CC(=O)N[C@@H](CO)C(=O)N[C@@H](COP(=O)(O)O)C(=O)N1CCC(c2ccc(C(F)(F)F)cc2)CC1

Compound: c1ccc2c(c1)NC1CNCCC21 (centres undefined)
Activity [2]: 60%

Activity [3]: 50%
Compound: O=C(N[C@H](CNc1nn[nH]n1)Cc1c[nH]c2ccccc12)[C@H](Cc1ccc(O)cc1)NC(=O)C12CC3CC(CC(C3)C1)C2

IC50 (HeLa): 3700 nM
Compound: Cn1ncc(-c2ccc(C(=O)N(c3ncccc3Cl)[C@@H]3CCCNC3)cc2F)c1-c1nnn[nH]1

Compound: CC(C)c1c(C(=O)Nc2ccccc2)c(-c2ccccc2)c(-c2ccc(F)cc2)n1CC[C@@H](O)C[C@@H](O)CC(=O)O [ATORVASTATIN]
Activity (Mus musculus): 27%

IC50 (HeLa): 500 nM
Compound: O=C(c1ccc(-n2nnc3cccnc32)cc1)N(c1ncccc1Cl)[C@@H]1CCCNC1
inhibition in vivo at 50 mg/kg (Rattus norvegicus [4]): 50% | inhibition in vivo at 50 mg/kg (Rattus norvegicus [5]): 58% | inhibition in vivo at 50 mg/kg (Rattus norvegicus [6]): 30%

Activity [7]: 100% | Activity [8]: 95%
Compound: H-VTVRFW-OH

IC50 [9]: 8300 nM
Compound: CC[C@H](C)[C@H](NC(=O)[C@H](CCCCNC(=N)N)NC(=O)[C@@H](NC(=O)[C@H](CC(C)C)NC(=O)[C@H](CC(N)=O)NC(=O)[C@H](Cc1c[nH]c2ccccc12)NC(=O)CNC(=O)[C@@H]1CCCN1C(=O)[C@H](Cc1ccccc1)NC(=O)[C@H](CO)NC(=O)[C@H](CCC(=O)O)NC(=O)[C@@H](N)CCSC)C(C)C)C(=O)NCC(=O)N[C@@H](CC(C)C)C(=O)N[C@@H](CC(C)C)C(=O)N[C@@H](CCCNC(=N)N)C(=O)O (H-MESFPGWNLV[hArg]IGLLR-OH)

inhibition [10]: 66%
Compound: O=S(=O)(Nc1cccc2c1CCCC2)c1ccc(N2CCNCC2)cc1

Compound: CCN(CC)C(=O)c1ccc(NC(=O)CSc2nnc(-c3cccs3)n2C2CC2)cc1
fold change (FC) [11]: 5 | fold change (FC) [12]: 3

IC50 [13]: 11200 nM
Compound: Cn1cncc1-c1ncc(-c2ncc(-c3ncc(-c4ccccc4)n3C)n2C)n1C

IC50 (HepG2): 29.7 nM
Compound: FC(F)(F)c1ccc(-c2nc3c(ccc4cc[nH]c43)o2)cc1

fold change (FC) [14]: 15
Compound: Cc1ccc(C(=O)Nc2ccc(S(=O)(=O)O)c3cc(S(=O)(=O)O)cc(S(=O)(=O)O)c23)cc1NC(=O)c1cccc(NC(=O)Nc2cccc(C(=O)Nc3cc(C(=O)Nc4ccc(S(=O)(=O)O)c5cc(S(=O)(=O)O)cc(S(=O)(=O)O)c45)ccc3C)c2)c1

inhibition [10]: > 50%
Compound: O=S(=O)(Nc1cccc2c1CCCC2)c1ccc(C2CCNCC2)cc1

Compound: CC(=O)N[C@H](C(=O)N[C@H](C(=O)N[C@@H](Cc1ccccc1)C(=O)N[C@H](C(=O)N[C@@H](CO)C(=O)N[C@@H](Cc1c[nH]c2ccccc12)C(=O)N[C@@H](CCC(=O)O)C(=O)N[C@@H](CCC(=O)O)C(=O)N[C@@H](Cc1ccc(O)cc1)C(=O)N[C@@H](CC(C)C)C(=O)N[C@@H](CC(=O)O)C(=O)N[C@@H](Cc1c[nH]c2ccccc12)C(=O)N[C@H](C(N)=O)C(C)C)[C@@H](C)O)C(C)C)[C@@H](C)O
Kd [15]: 700 nM

Compound: Cc1cc2c(cc1-c1ccccc1F)CNCC2
Activity [16]: 50% | Activity [17]: > 100% | Activity [18]: 10%

IC50 (HepG2): 0.036 nM
Compound: FC(F)(F)c1ccc(-c2nc3ccc(C(F)(F)F)c(Cl)c3o2)cc1
inhibition in vivo at 0.01 mg/kg (Hamster [19]): 46% | inhibition in vivo at 0.04 mg/kg (Hamster [20]): 57%

fold change (FC) [11]: 10 | fold change (FC) [21]: 8 | fold change (FC) [12]: 6
Compound: Cc1cc(C(=O)C2=C(O)C(=O)N(CCCN3CCOCC3)C2c2ccncc2)ccc1OCc1ccccc1 (centres undefined)
Activity (Mus musculus): 32%

Activity [22]: 33%
Compound: Cc1cc2c(cc1-c1ccccc1F)C(=O)NCC2

IC50 (HepG2): 2.1 nM
Compound: CC(=O)Nc1ccc2nc(-c3ccc(C(F)(F)F)cc3)oc2c1C(F)(F)F

Kp [23]: 28
Compound: CCOC(=O)O[C@@H](C)n1nnnc1-c1c(-c2ccc(C(=O)N(c3ncccc3Cl)[C@@H]3CCCNC3)cc2F)cnn1C [PF-06815345]

Reference: ChEMBL document CHEMBL4219125, “Small molecule modulators of PCSK9 - A literature and patent overview” (Bioorg Med Chem Lett, 2018)
